Measurements from publication PMC10850561, “Eutypellaolides A–J, Sesquiterpene diversity expansion of the polar fungus Eutypella sp. D-1” (Frontiers in Microbiology, 2024).
pIC50: −log10 of the molar value.

Biological target: T1, PTP1B (Homo sapiens, UniProt P18031)
T1 construct: gene PTPN1
T1 sequence (P18031 1-435): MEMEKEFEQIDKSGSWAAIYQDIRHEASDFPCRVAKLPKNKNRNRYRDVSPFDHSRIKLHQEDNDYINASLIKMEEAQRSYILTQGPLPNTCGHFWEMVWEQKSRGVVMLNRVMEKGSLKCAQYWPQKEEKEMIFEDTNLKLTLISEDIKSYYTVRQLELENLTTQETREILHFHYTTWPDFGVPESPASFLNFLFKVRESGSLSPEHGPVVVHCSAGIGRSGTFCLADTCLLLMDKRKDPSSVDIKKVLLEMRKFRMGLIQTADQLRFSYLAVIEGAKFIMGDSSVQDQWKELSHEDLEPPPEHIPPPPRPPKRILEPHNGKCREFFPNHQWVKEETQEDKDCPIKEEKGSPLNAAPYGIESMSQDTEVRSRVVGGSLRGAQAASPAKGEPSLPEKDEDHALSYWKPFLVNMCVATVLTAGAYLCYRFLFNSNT
Experiment: PTP1B enzyme inhibition assay in 96-well microplates
Assay type: biochemical

`CC1=CC(=O)C[C@@]2(C)C=C3OC(=O)C(CO)=C3C=C12` [compound 14, 2-one-13hydroxy-3,5,8,7(11)-eudesmatetraen-12,8-olide] and `CO[C@]1(C)C2=CC3=C(CO)C(=O)OC3=C[C@]2(C)CC[C@@H]1O` [compound 5, Eutypellaolide E] are within 0.2 log units of each other in pIC50: 4.31 for the first, 4.35 for the second.

`CC1=CCC[C@@H]2CC3=C(CO)C(=O)OC3=CC12C` (stereo partly drawn) [compound 11, eut-Guaiane] showed a pIC50 of 4.36.
